This is an account of results in article PMC10183829, “Shuffled ATG8 interacting motifs form an ancestral bridge between UFMylation and autophagy” (The EMBO Journal, 2023).

Entries after “also recorded” stand apart in the source; their conditions may differ. No end group written: not given here.

One assay has as its target T1, AtUFM1 (Arabidopsis thaliana, UniProt Q9CA23).
T1 construct: made in house; host or cells: E. coli Rosetta2 (DE3) pLysS
As to the kind of experiment: Fluorescence anisotropy binding of TAMRA-labeled AtC53 IDR-derived peptides to AtUFM1. The protocol:
(§1) For fluorescence anisotropy measurements, all peptides were in‐house synthetized and HPLC purified attached to 5(6)‐Carboxytetramethylrhodamine (TAMRA) to its N‐terminal. Binding affinities of ATG8A or AtUFM1 to TAMRA‐labeled peptides were measured by the change in fluorescence anisotropy in an FS5 Spectrofluorometer (Edinburgh Instruments) with excitation at 550 nm (slit width 5 nm) and emission at 580 nm (slit width 5 nm). […] Binding curves were fitted using Prism Software (GraphPad).

The next assay deals with T2, ATG8A (Arabidopsis thaliana, UniProt Q8LEM4).
T2 construct: made in house; host or cells: E. coli Rosetta2 (DE3) pLysS
T2 sequence (Q8LEM4 whole entry): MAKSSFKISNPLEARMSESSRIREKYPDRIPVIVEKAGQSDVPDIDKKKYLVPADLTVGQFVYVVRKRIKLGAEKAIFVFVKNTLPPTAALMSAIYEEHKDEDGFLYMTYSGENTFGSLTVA
As to the kind of experiment: Fluorescence anisotropy binding of TAMRA-labeled AtC53 IDR-derived peptides to ATG8A. The procedure: as §1

In a further assay the test system is HsUFM1. The assay is described as follows: Native mass spectrometry (nMS) complex formation with HsUFM1. The class given is binding, Homo sapiens. The note with it: HsUFM1 5 μM, peptide 25 μM. The procedure: Proteins were buffer exchanged into ammonium acetate using BioRad Micro Bio‐Spin 6 Columns. Native mass spectrometry experiments were carried out on a Synapt G2Si instrument (Waters, Manchester, UK) with a nanoelectrospray ionization source (nESI). Mass calibration was performed by a separate infusion of NaI cluster ions. Solutions were ionized from a thin‐walled borosilicate glass capillary (i.d. 0.78 mm, o.d. 1.0 mm, Sutter Instrument Co., Novato, CA, USA) pulled in‐house to nESI tip with a Flaming/Brown micropipette puller (Sutter Instrument Co., Novato, CA, USA). A potential of 0.8 kV was applied to the solution via a thin platinum wire (diameter 0.125 mm, Goodfellow, Huntingdon, UK). The following instrument parameters were used: capillary voltage 0.8 kV, sample cone voltage 40 V, source offset 60 V, source temperature 40°C, trap collision energy 4.0 V, and trap gas 3 ml/min. Data were processed using Masslynx V4.2 and OriginPro 2021.

Assay [1] relates to GST-GABARAP / mCh-HsC53 interaction. As to the kind of experiment: On-bead competition of the GABARAP-HsC53 interaction. The class given is binding, human. The note with it: 1 μM HsC53; cAIM peptide 0-100 μM; 4 replicates. The protocol:
(§2) Glutathione‐Sepharose 4B bead slurry (Cytiva, average diameter 90 μm) was washed and diluted 10 times in HEPES buffer (25 mM HEPES pH 7.5, 150 mM NaCl, 1 mM DTT). The beads were then incubated for 30 min at 4°C (16 rpm horizontal rotation) with GST‐tagged bait proteins (2 μM of GST, GST‐FIP200 CD, GST‐ATG8A, GST‐GABARAP, GST‐AtUFM1, and GST‐HsUFM1). The beads were washed five times in 10 times the bead volume of HEPES buffer. The buffer was removed, and the beads were resuspended 1:20 in HEPES buffer. 10 μl of diluted beads was mixed with 20 μl of mCherry‐tagged binding partner at a concentration of 1.5 μM (0.5 μl bead slurry and 1 μM binding partner final concentrations) with or without competitor, as stated in the relative experiment. […]
(§3) From images acquired from a Zeiss LSM700 confocal microscope, the quantification of fluorescence was performed in ImageJ (Schindelin et al, [2012]) by drawing a line across each bead and taking the maximum gray value along the line. The maximum gray value for any given pixel represents the fluorescence intensity.
(§4) For images acquired from a Zeiss LSM800 confocal microscope, we used a custom Fiji Macro. […] In the end, the mean fluorescent intensities were exported out and used for quantification.
(§5) For each method, the fluorescence intensity was normalized against the mean of the control condition.

Assay [2] deals with GST-HsUFM1 / mCh-HsC53 interaction. The assay is described as follows: On-bead competition of the HsUFM1-HsC53 interaction. The class given is binding, Homo sapiens. The note with it: 1 μM HsC53; cAIM peptide 0-100 μM; UBA5 LIR peptide or GABARAP 100 μM. The procedure: as §2, §3, §4, §5
The subject of assay [3] is GST-ATG8A / mCh-AtC53 interaction. The assay is described as follows: On-bead competition of the ATG8A-AtC53 interaction. The class given is binding, Arabidopsis thaliana. Conditions: 1 μM AtC53; cAIM peptide 0-100 μM; 2 independent replicates containing 2 technical replicates. The protocol: as §2, §3, §4, §5
Assay [4] has as its system GST-AtUFM1 / mCh-AtC53 interaction. As to the kind of experiment: On-bead competition of the AtUFM1-AtC53 interaction. The class given is binding, Arabidopsis thaliana. Conditions: 1 μM AtC53; cAIM peptide 0-100 μM; 2 independent replicates containing 2 technical replicates. The protocol:
as §2, §3, §4, §5

Assay [5] concerns GST-GABARAP / MBP-C53 interaction. The assay is described as follows: In vitro GST pulldown competition of the GABARAP-C53 interaction. The class given is binding, human. Conditions: cAIM peptide 200 μM; immunoblot read-out. The protocol:
(§6) For pulldown experiments, 5 μl of glutathione magnetic agarose beads (Pierce Glutathione Magnetic Agarose Beads, Thermo Scientific) was equilibrated by washing them two times with wash buffer (100 mM Sodium Phosphate pH 7.2, 300 mM NaCl, 1 mM DTT, 0.01% (v/v) IGEPAL). Normalized E. coli clarified lysates or purified proteins were mixed, according to the experiment, added to the washed beads, and incubated on an end‐over‐end rotator for 1 h at 4°C. Beads were washed five times with 1 ml wash buffer. Bound proteins were eluted by adding 50 μl Laemmli buffer. Samples were analyzed by western blotting or Coomassie staining.

In assay [6] the test system is GST-HsUFM1 / MBP-HsC53 interaction. The assay is described as follows: In vitro GST pulldown competition of the HsUFM1-HsC53 interaction. The class given is binding, Homo sapiens. Conditions: cAIM peptide 200 μM; immunoblot read-out. The procedure:
as §6

T1 sequence (Q9CA23 whole entry): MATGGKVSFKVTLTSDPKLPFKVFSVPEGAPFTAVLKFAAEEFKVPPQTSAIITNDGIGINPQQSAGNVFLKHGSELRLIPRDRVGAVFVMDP

In the case of “AADSIDADITVET [sAIM mut, sAIM mutant peptide where the tryptophan was mutated to alanine]”, at AtUFM1 (50 nM TAMRA-labeled peptide, up to 320 μM AtUFM1), the “Behaviour in fluorescence anisotropy titration with UFM1 (in words)” value is given as “did not show any change”. Also, at ATG8A (50 nM TAMRA-labeled peptide, up to 320 μM ATG8A), the “Behaviour in fluorescence anisotropy titration with ATG8 (in words)” value is “did not show any change”.

As for AADSIDWDITVETPEIDWDVSMVEEV [sAIM1,2], on AtUFM1, the Kd was 148 µM.

In the case of AADSWDDIITVET [cAIM mut], the affinity at ATG8A, expressed as Kd, was 94.3 µM. This lies in the double-digit micromolar range.

Take DVSEISWDVSVET [sAIM3]: binding on ATG8A was characterised by a dissociation constant (Kd) of 176 µM.

Regarding EPLDFDWEIVLEEEM [cAIM peptide], the “Complex formation with HsUFM1 by nMS (in words)” value in the assay with HsUFM1 is given as “did not appreciably interact; also recorded: negligible amount of 1:1 complex”. Further, the “Competition of the HsC53-GABARAP interaction (in words)” value in [1] is reported as “outcompeted”. In assay [2], the “Competition of the HsC53-HsUFM1 interaction (in words)” value is given as “could not outcompete”. The “Competition of the AtC53-ATG8A interaction (in words)” value in assay [3] was “outcompeted”. The “Competition of the AtC53-AtUFM1 interaction (in words)” value in assay [4] was “could not outcompete”. Moreover, the “Competition of the GABARAP-C53 interaction in pulldown (in words)” value in [5] is “outcompeted”. The “Competition of the HsUFM1-HsC53 interaction in pulldown (in words)” value in assay [6] was “cannot outcompete”.

Regarding GPLHDDNEWNISVVDD [UBA5 LIR peptide], in the assay with HsUFM1, the “Complex formation with HsUFM1 by nMS (in words)” value is “forms a 1:1 complex”. Further, in [2], the “Competition of the HsC53-HsUFM1 interaction (in words)” value is reported as “able to disrupt”.
